Assay results reported in US4268630A, “Microbiological production of ketones from C3 -C6 alkanes” (priority 1979, dated 1981).

How the values were obtained:
[1] = tested on: cell-free secondary alcohol dehydrogenase (SADH) system; experiment: Cofactor requirement of cell-free soluble extracts oxidizing 2-butanol; type: biochemical
Description: To prepare the cell-free secondary alcohol dehydrogenase (SADH) system, the washed cells were disrupted with a Wave Energy Ultrasonic Oscillator, Model W201 (Wave Energy System, Inc., Newtown, Pa.) and centrifuged at 20,000× g. for 30 minutes. […] The enzyme activity was measured with a fluorescence spectrophotometer (Perkin Elmer, Model MPF 44A) by following the formation of reduced NAD (EX 340 nm, Em 460 nm). The formation of reduced NAD was also followed with an absorption spectrophotometer at 340 nm. The assay system (3 ml.) contained: potassium phosphate buffer pH 7.0; 150 μmol.; NAD 1 μmol.; a given amount of enzyme preparation; and secondary alcohol 10 μmol. The reaction was started by the addition of substrate. One unit of enzyme activity represents the reduction of one μmole NAD per minute. Protein concentrations were determined by the Lowry method (J. Biol. Chem., 193: 255-275 (1951)).

[2] = tested on: secondary alcohol dehydrogenase; experiment: Activity of purified yeast-derived secondary alcohol dehydrogenase; type: biochemical, Pichia sp. NRRL Y-11,328; settings: for ability to act as electron acceptor/carrier: purified enzyme
[3] = tested on: Methylobacter capsulatus Y (NRRL B-11,201); experiment: Oxidation of n-alkanes to methyl ketones by resting cell suspension; type: cell-based; settings: cell suspension grown on methane
Description: (§1) The pH of the nutrient medium was adjusted to 7.0 by the addition of acid or base and 50 ml. samples of the nutrient medium were charged into a plurality of 300 ml. shaker flasks. […] The isolates had been maintained on methanol (0.4% V/V) agar plates or on agar plates under an atmosphere of methane and air having a 1:1 V/V gas ratio which had been transferred every two weeks. For growth on methanol, the medium was supplemented with 0.4% methanol. For growth on methane, the gaseous phase of the inoculated flasks was replaced with a gas mixture comprised on methane and air having a ratio of 1:1 on a V/V basis. The inoculated flasks were sealed air-tight and were incubated on a rotary shaker of orbital radius 2.5 cm. at 250 rpm and at 30° C. for two days until turbidity in the medium had developed. The cells were harvested by centrifugation at 10,000×g. at 4° C. for 30 minutes. The cell pellet was washed twice with a 0.05 M phosphate buffer at a pH of 7.0 (containing 0.02 M MgCl2). The washed cells were then suspended in a 0.05 M phosphate buffer at pH 7.0.
(§2) A 0.5 ml. sample of each washed cell suspension (2 mg. cells) was put into 10 ml. vials at 4° C. which were sealed with a rubber cap. The gaseous phase of the vials was removed with vacuum and then was replaced with a gas mixture of the substrate reactant (i.e., alkane or secondary alcohol) and oxygen at a 1:1 V/V ratio. (In the case of a liquid substrate, i.e., secondary alcohol, 10 μl of the substrate was put in the 10 ml. vials). The vials were then incubated at 30° C. on a rotary shaker at 300 rpm. Samples of product (1-3 μl) were withdrawn periodically with a microsyringe and the products were analyzed by gas chromatography (ionization flame detector column).

[4] = tested on: Methylobacterium organophilum XX; experiment: as above; type: cell-based; settings: cell suspension grown on methane
Description: as §1, §2

[5] = tested on: Methylocystis parvus OBBP (NRRL B-11,198); experiment: as above; type: cell-based; settings: cell suspension grown on methane
Description: as §1, §2

[6] = tested on: Methylomonas albus BG8 (NRRL B-11,200); experiment: as above; type: cell-based; settings: cell suspension grown on methane
Description: as §1, §2

[7] = tested on: Methylomonas methanica SI (NRRL B-11,199); experiment: as above; type: cell-based; settings: cell suspension grown on methane
Description: as §1, §2

[8] = tested on: Methylosinus sporium 5 (NRRL B-11,197); experiment: as above; type: cell-based; settings: cell suspension grown on methane
Description: as §1, §2

[9] = tested on: Methylosinus trichosporium OB3b (NRRL B-11,196); experiment: as above; type: cell-based; settings: cell suspension grown on methane
Description: as §1, §2

[10] = tested on: Methylococcus capsulatus Texas (ATCC 19069); experiment: as above; type: cell-based; settings: cell suspension grown on methane
Description: The pH of the nutrient medium was adjusted to 7.0 by the addition of acid or base and 50 ml. samples of the nutrient medium were charged into a plurality of 300 ml. shaker flasks. The shaker flasks were inoculated with an inoculating loop of cells from an agar plate containing homogeneous colonies of the microorganisms on the plate (the purity of the isolates was confirmed by microscopic examination). The isolates had been maintained on methanol (0.4% V/V) agar plates or on agar plates under an atmosphere of methane and air having a 1:1 V/V gas ratio which had been transferred every two weeks. For growth on methanol, the medium was supplemented with 0.4% methanol. For growth on methane, the gaseous phase of the inoculated flasks was replaced with a gas mixture comprised on methane and air having a ratio of 1:1 on a V/V basis. The inoculated flasks were sealed air-tight and were incubated on a rotary shaker of orbital radius 2.5 cm. at 250 rpm and at 30° C. for two days until turbidity in the medium had developed. The cells were harvested by centrifugation at 10,000×g. at 4° C. for 30 minutes. The cell pellet was washed twice with a 0.05 M phosphate buffer at a pH of 7.0 (containing 0.02 M MgCl2). The washed cells were then suspended in a 0.05 M phosphate buffer at pH 7.0.
as §2, with “The vials were then incubated at 30° C. on a rotary shaker at 300 rpm.” left out

[11] = tested on: Methylobacter capsulatus (Y, NRRL-B-11,201); experiment: Conversion of n-alkanes to secondary alcohols by cell suspensions; type: cell-based; settings: growth substrate Methane
Text: (§3) Both cell suspensions (particulate fraction) and cell-free particulate fraction of methane-grown methylotroph microorganisms are capable of catalyzing the conversion of C3 -C6 n-alkanes to the corresponding alcohols including secondary alcohols. The conditions for preparing the cell suspensions or the cell-free particulate fractions from methane-grown methylotroph microorganisms is the same as described above. The cell-free particulate fraction requires the presence of oxygen and NADH as an electron donor. […] Tables XVI and XVII show the conversion of C3 -C6 n-alkanes to the corresponding secondary alcohols using cell suspensions and cell-free particulate fractions, respectively, of methane-grown methylotroph microorganisms.

[12] = tested on: Methylobacterium sp. (CRL-26, NRRL-B-11,208); experiment: as above; type: cell-based; settings: growth substrate Methane
Text: as §3

[13] = tested on: Methylococcus capsulatus (Texas, ATCC 19,069); experiment: as above; type: cell-based; settings: growth substrate Methane
Text: as §3

[14] = tested on: Methylomonas sp. (CRL-17, NRRL-B-11,209); experiment: as above; type: cell-based; settings: growth substrate Methane
Text: as §3

[15] = tested on: Methylosinus sp. (CRL-15, NRRL-B-11,202); experiment: as above; type: cell-based; settings: growth substrate Methane
Text: as §3

[16] = tested on: Methylosinus trichosporium (OB3b, NRRL-B-11,196); experiment: as above; type: cell-based; settings: growth substrate Methane
Text: as §3

[17] = tested on: particulate P(40) fraction of Methylobacterium sp. (CRL-26, NRRL-B-11,222); experiment: Hydroxylation of n-alkanes to secondary alcohols by particulate P(40) fraction; type: biochemical
Text: as §3
(§4) ^(a) Particulate P(40) fraction was prepared as follows:
(§5) Cellsuspensions at 4° C. were disintegrated through a French
(§6) Pressure cell and centrifuged at 4000 × g. for 15 min. to remove
(§7) unbroken bacteria. The supernatant solution was then centrifuged at 40,00
(§8) × g. for 30 min. at 4° C. yielding the particulate P(40) and
(§9) soluble S(40) fractions. The products were identified by gas
(§10) chromatography and cochromatography with authentic standard.

[18] = tested on: particulate P(40) fraction of Methylococcus capsulatus (Texas, ATCC 19,069); experiment: as above; type: biochemical
Text: as §3, §4, §5, §6, §7, §8, §9, §10

[19] = target: particulate P(40) fraction of Methylosinus sp. (CRL-15, NRRL-B-11,202) (Methylosinus trichosporium, UniProt Q50541+Q9KX50+Q9KX51); experiment: as above; type: biochemical
Sequence of particulate P(40) fraction of Methylosinus sp. (CRL-15, NRRL-B-11,202) (Q9KX50 40-431): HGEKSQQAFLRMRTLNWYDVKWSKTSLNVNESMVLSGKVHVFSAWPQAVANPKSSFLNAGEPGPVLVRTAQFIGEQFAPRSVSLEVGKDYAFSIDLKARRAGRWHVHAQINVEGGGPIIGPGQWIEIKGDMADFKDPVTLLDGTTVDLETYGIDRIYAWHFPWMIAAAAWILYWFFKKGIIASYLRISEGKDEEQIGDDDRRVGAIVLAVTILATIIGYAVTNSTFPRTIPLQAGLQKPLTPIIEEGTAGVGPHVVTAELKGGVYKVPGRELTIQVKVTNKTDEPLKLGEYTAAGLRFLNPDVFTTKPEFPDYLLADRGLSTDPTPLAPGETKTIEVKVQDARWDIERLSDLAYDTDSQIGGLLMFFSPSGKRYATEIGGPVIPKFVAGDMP
Sequence of particulate P(40) fraction of Methylosinus sp. (CRL-15, NRRL-B-11,202) (Q50541 1-252): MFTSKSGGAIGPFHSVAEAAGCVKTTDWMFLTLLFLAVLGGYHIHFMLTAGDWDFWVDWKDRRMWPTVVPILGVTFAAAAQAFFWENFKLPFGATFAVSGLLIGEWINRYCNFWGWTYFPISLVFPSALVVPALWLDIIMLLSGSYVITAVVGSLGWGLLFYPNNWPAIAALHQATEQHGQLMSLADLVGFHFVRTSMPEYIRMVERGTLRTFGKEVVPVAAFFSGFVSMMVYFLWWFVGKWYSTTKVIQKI
Sequence of particulate P(40) fraction of Methylosinus sp. (CRL-15, NRRL-B-11,202) (Q9KX51 1-256): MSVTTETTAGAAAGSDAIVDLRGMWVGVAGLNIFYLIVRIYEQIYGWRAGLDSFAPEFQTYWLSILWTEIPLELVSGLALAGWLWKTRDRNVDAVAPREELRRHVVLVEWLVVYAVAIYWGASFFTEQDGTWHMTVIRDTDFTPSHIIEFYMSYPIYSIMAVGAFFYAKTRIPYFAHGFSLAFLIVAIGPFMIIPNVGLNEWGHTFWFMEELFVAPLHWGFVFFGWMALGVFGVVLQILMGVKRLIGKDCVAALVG
Text: as §3, §4, §5, §6, §7, §8, §9, §10

[20] = tested on: particulate P(40) fraction of Methylosinus trichosporium (OB3b, NRRL-B-11,196); experiment: as above; type: biochemical
Text: as §3, §4, §5, §6, §7, §8, §9, §10

[21] = tested on: Methylosinus trichosporium OB3b NRRL B-11,196; experiment: Conversion of n-alkanes to oxidation products by cell suspensions; type: cell-based; settings: methane-grown cell suspension, pH 7.0
Description: (§11) ^(a) Cell-suspensions of methanegrown methylotroph microorganisms
(§12) indicated in 0.15 M phosphate buffer, pH 7.0 incubated in the alkanes as
(§13) indicated at 3° C. The oxidation products were determined by g.l.c

[22] = tested on: Methylococcus capsulatus CRL M1 NRRL B-11,219; experiment: as above; type: cell-based; settings: methane-grown cell suspension, pH 7.0
Description: as §11, §12, §13

Compound	effectiveness as cofactor for oxidation of 2-butanol [1]	ability to act as electron acceptor/carrier [2]	Conversion Rates, n-alkane to methyl ketone [3]	Conversion Rates, n-alkane to methyl ketone [4]	Conversion Rates, n-alkane to methyl ketone [5]	Conversion Rates, n-alkane to methyl ketone [7]	Conversion Rates, n-alkane to methyl ketone [9]	Conversion Rates, n-alkane to methyl ketone [10]	Conversion Rate, n-alkane to secondary alcohol [12]	Conversion Rate, n-alkane to secondary alcohol [13]	Conversion Rate, n-alkane to secondary alcohol [16]	also measured
O=C1C(Cl)=CC(=Nc2ccc(O)cc2)C=C1Cl [dichlorophenol iodophenol, 2,6-dichlorophenol indophenol, reference compound]	not effective	could not act as electron carrier	–	–	–	–	–	–	–	–	–	–
C[n+]1c2ccccc2nc2ccccc21 [phenazine methosulfate, reference compound]	not effective	could not act as electron carrier	–	–	–	–	–	–	–	–	–	–
CCCC [n-Butane, n-butane]	–	–	1.1 μmoles/hr/mg protein	2.0 μmoles/hr/mg protein	1.0 μmoles/hr/mg protein	0.30 μmoles/hr/mg protein	1.2 μmoles/hr/mg protein	0.52 μmoles/hr/mg protein	0.80 μmoles/hr/^5 mg. protein	1.0 μmoles/hr/^5 mg. protein	1.5 μmoles/hr/^5 mg. protein	Conversion Rates, n-alkane to methyl ketone [6]: 0.60 μmoles/hr/mg protein; Conversion Rates, n-alkane to methyl ketone [8]: 0.58 μmoles/hr/mg protein; Conversion Rate, n-alkane to secondary alcohol [11]: 0.09 μmoles/hr/^5 mg. protein; Conversion Rate, n-alkane to secondary alcohol [14]: 1.2 μmoles/hr/^5 mg. protein; Conversion Rate, n-alkane to secondary alcohol [15]: 1.2 μmoles/hr/^5 mg. protein; Conversion Rate, n-alkane to secondary alcohol [17]: 0.61 μmoles/hr/2.0mg. of protein; Conversion Rate, n-alkane to secondary alcohol [18]: 0.92 μmoles/hr/2.0mg. of protein; Conversion Rate, n-alkane to secondary alcohol [19]: 0.89 μmoles/hr/2.0mg. of protein; Conversion Rate, n-alkane to secondary alcohol [20]: 0.79 μmoles/hr/2.0mg. of protein; Conversion Rate to product 1-Butanol [21]: 0.3 μmoles/hr./mg./protein; Conversion Rate to product 2-Butanol [21]: 0.4 μmoles/hr./mg./protein; Conversion Rate to product 2-Butanone [21]: 0.1 μmoles/hr./mg./protein; Conversion Rate to product n-butanol [21]: 0.1 μmoles/hr./mg./protein; Conversion Rate to product 1-Butanol [22]: 0.4 μmoles/hr./mg./protein; Conversion Rate to product 2-Butanol [22]: 0.5 μmoles/hr./mg./protein; Conversion Rate to product 2-Butanone [22]: 0.2 μmoles/hr./mg./protein; Conversion Rate to product n-butanol [22]: 0.2 μmoles/hr./mg./protein
NC(=O)c1ccc[n+]([C@@H]2O[C@H](COP(=O)([O-])OP(=O)(O)OC[C@H]3O[C@@H](n4cnc5c(N)ncnc54)[C@H](OP(=O)(O)O)[C@@H]3O)[C@@H](O)[C@H]2O)c1 [NADP, reference compound]	not effective	could not act as electron carrier	–	–	–	–	–	–	–	–	–	–
Cc1cc2nc3c(=O)[nH]c(=O)nc-3n(C[C@H](O)[C@H](O)[C@H](O)COP(=O)(O)OP(=O)(O)OC[C@H]3O[C@@H](n4cnc5c(N)ncnc54)[C@H](O)[C@@H]3O)c2cc1C [FAD, flavin adenine dinucleotide, reference compound]	not effective	could not act as electron carrier	–	–	–	–	–	–	–	–	–	–
CCCCC [n-Pentane, n-pentane]	–	–	0.63 μmoles/hr/mg protein	0.58 μmoles/hr/mg protein	0.51 μmoles/hr/mg protein	0.28 μmoles/hr/mg protein	0.72 μmoles/hr/mg protein	0.42 μmoles/hr/mg protein	0.01 μmoles/hr/^5 mg. protein	0.032 μmoles/hr/^5 mg. protein	0.06 μmoles/hr/^5 mg. protein	–
N[C@@H](CCC(=O)N[C@@H](CS)C(=O)NCC(=O)O)C(=O)O [GSH, glutathione, reference compound]	not effective	–	–	–	–	–	–	–	–	–	–	inhibition of secondary alcohol dehydrogenase activity (in words) ([2]; primary alcohols tested at 10^-3 M): strongly inhibited
CCCCCC [n-Hexane, n-hexane]	–	–	0.07 μmoles/hr/mg protein	0.09 μmoles/hr/mg protein	0.04 μmoles/hr/mg protein	0.02 μmoles/hr/mg protein	0.05 μmoles/hr/mg protein	0.09 μmoles/hr/mg protein	0.007 μmoles/hr/^5 mg. protein	0.01 μmoles/hr/^5 mg. protein	0.01 μmoles/hr/^5 mg. protein	–
